According to patent publication US7514240B2, “EGR-EGFR complex” (Japan Science and Technology Agency, priority 2002, dated 2009):

Legend:
[1] = molecular target: T1, EGFR (A431 cell) (Homo sapiens, UniProt P00533); assay: EGF-EGFR binding inhibition assay (Eu-EGF, A431 cells, DELFIA time-resolved fluorescence); conditions: Eu-EGF 5 nmol/L, compounds at 1, 3, 10 and 30 μg/mL, nonlinear least square fitting
T1 construct: host or cells: A431 cells
Method: A431 cells (human squamous cell carcinoma cells, purchased from ATCC) for use in this experiment were subcultured using a medium (hereinafter denoted as a medium) prepared by adding inactivated FBS (JRH), Penicillin-streptmycin (GIBCO), and Amphotelicin B (Sigma) at final concentrations of 10 vol %, 50 U/mL-50 μg/mL, and 1 μg/mL, respectively, to DMEM (Sigma). A431 cells suspended in the medium were inoculated into a 96-well microtiter plate (black, COSTAR) at 10,000 cells/100 μL/well, and then pre-cultured overnight in a CO2 incubator (37° C., 5% CO2). After the media within the wells had been completely removed, the wells were washed once in 50 mmol/L HEPES-HCl (pH 7.8, hereinafter denoted as a Buffer) containing 138 mmol/L NaCl, 5 mmol/L KCl, 1.2 mmol/L MgSO4, 1.2 mmol/L CaCl2, 75 μmol/L EDTA and 0.2 vol % BSA, and then a Buffer was added at 49 μL/well. Subsequently, DMSO was added at 1 μL/well, and then Eu-EGF that had been diluted with a Buffer at various concentrations were added at 50 μL/well. The plate was incubated at room temperature for 1 hour, washed 5 times with an ice-cold buffer (200 μL/well), and then a DELFIA enhancement reagent (PerkinElmer life sciences) was added at 100 μL/well. After further 30 minutes of incubation at room temperature, time-resolved fluorescence was measured using a plate reader (ARVO-sx, PerkinElmer life sciences). Excitation wavelength and emission wavelength used herein were 340 nm and 615 nm, respectively.
A value of specific binding was calculated by subtracting a measured value of non-specific binding from a value measured at each ligand concentration. […]
A representative compounds for site 1 of 2) in Example 6, a representative compounds for site 2 of 2) in Example 6, and a representative compounds for site 3 of 1) in Example 6 were subjected to this assay. […] After 30 minutes of incubation at room temperature, time-resolved fluorescence was measured using a plate reader (ARVO-sx, PerkinElmer life sciences). […] Assay was run in duplicate, and then data were processed using each average measured value. […]

[2] = molecular target: T2, EGF receptor of A431 cells (Homo sapiens, UniProt P00533); assay: EGFR antagonist activity using EGFR phosphorylation as an index (western blotting); type: cell-based; conditions: EGF 100 ng/mL
T2 construct: endogenous in cells; host or cells: A431 cells
T2 sequence (P00533 25-1210): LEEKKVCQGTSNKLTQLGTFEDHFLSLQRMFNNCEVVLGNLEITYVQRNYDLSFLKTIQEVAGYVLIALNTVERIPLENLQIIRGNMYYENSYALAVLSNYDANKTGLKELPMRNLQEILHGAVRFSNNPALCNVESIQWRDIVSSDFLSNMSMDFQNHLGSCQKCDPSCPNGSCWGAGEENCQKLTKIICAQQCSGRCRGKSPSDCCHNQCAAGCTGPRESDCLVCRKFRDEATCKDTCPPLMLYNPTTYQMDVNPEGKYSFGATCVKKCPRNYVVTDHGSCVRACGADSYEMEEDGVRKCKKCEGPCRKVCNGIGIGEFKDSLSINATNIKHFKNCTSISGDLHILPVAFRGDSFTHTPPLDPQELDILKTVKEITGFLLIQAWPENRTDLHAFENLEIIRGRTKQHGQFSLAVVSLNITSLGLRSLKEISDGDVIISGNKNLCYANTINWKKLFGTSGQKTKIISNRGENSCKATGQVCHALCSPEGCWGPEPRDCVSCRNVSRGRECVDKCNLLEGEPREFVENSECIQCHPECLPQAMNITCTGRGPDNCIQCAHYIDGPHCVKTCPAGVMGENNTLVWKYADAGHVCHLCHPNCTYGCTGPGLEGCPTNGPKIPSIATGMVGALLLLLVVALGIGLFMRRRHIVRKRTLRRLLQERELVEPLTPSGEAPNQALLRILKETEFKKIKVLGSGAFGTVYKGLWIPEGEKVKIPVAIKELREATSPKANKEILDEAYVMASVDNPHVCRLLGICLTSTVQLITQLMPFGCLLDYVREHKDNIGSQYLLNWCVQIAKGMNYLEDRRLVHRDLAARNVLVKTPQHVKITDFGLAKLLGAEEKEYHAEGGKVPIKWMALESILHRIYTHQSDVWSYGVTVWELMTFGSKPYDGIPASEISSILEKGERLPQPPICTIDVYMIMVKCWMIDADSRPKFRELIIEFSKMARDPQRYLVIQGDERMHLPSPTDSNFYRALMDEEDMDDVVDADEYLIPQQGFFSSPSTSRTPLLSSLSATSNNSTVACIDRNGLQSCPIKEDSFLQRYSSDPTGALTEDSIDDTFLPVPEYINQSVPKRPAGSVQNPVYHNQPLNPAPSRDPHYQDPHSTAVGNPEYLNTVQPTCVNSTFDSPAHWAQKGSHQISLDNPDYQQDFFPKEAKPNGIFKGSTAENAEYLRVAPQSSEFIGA
Method: When EGFR is activated by binding of a ligand, intracellular regions are phosphorylated. This phosphorylation is detectable using a phosphorylated receptor-specific antibody. A431 cells were cultured (BNR-110M, ESPEC CORP.) using Dulbecco's Modified Eagle's Medium (Sigma) containing 10% fetal calf serum (JRH Bioscience) under an environment of 5% CO2 at 37° C. for 1 day. The cells were then cultured in a serum-free medium for 1 day. When agonist activity was assayed, a medium containing a sample at a concentration of 10 μg/mL was added, and then the resultant was allowed to stand for 10 minutes. Furthermore, when antagonist activity was assayed, a medium containing a sample at a concentration of 10 μg/mL or 100 μg/mL was added, and then the resultant was allowed to stand for 20 minutes. […] The media were removed, the cells were washed with cooled phosphate buffered saline (PBS, Sigma), and then a heated cell lysis buffer (125 mmol/L Tris (Wako Pure Chemical Industries, Ltd.)-hydrochloric acid (Wako Pure Chemical Industries, Ltd.) buffer (pH 6.8) containing 20% glycerol (Wako Pure Chemical Industries, Ltd.), 2% SDS (Sigma), 5% 2-Mercaptoethanol (Sigma), and 0.025 mg/mL Bromo Phenol Blue (Sigma)) was added, thereby obtaining a cell lysate solution. The obtained cell lysate was applied to 7.5% polyacrylamide gel (e-PAGEL, ATTO Corporation), and then subjected to separation by electrophoresis (AE-6400, ATTO Corporation) under a condition of 30 mA per sheet of gel using Tris/glycine/SDS buffer (Bio-Rad Laboratories, Inc.). The resultant was transferred to a polyvinylidene difluoride (PVDF) membrane (clear blot membrane-P, ATTO Corporation) under conditions of 200 mA for 1 hour using semi-dry blotting system (AE-6675, ATTO Corporation). The PVDF membrane was blocked using PBS containing 5% skim milk (Wako Pure Chemical Industries, Ltd.) at room temperature for 1 hour.

T1 sequence (P00533 25-1210): as above

| SMILES | IC50 [1] [µM] | inhibition of activation of the EGF receptor due to EGF (EGFR phosphorylation) ([2]; sample 10 μg/mL) | inhibition of activation of the EGF receptor due to EGF (EGFR phosphorylation) ([2]; sample 100 μg/mL) |
| --- | --- | --- | --- |
| CN1CCN(CCCN2c3ccccc3Sc3ccc(C(F)(F)F)cc32)CC1.Cl.Cl [10-[3-(4-methyl-piperazine-1-yl)-propyl]-2-trifluoromethyl-10H-phenothiazine dihydrochloride] | 16.7 | inhibited activation of the EGF receptor | – |
| CCc1cc2c(cc1C(=O)CSc1ncccc1C(=O)O)C(C)(C)CCC2(C)C [2-[2-(3-ethyl-5,5,8,8-tetramethyl-5,6,7,8-tetrahydro-naphthalene-2-yl)-2-oxo-ethylsulfanyl]-nicotinic acid] | 57.8 | – | inhibited activation of the EGF receptor |
| CCCCCCSc1nc2c(c(=O)[nH]c(=O)n2C)n1CCC [8-hexylsulfanyl-3-methyl-7-propyl-3,7-dihydro-purine-2,6-dione] | 40.1 | inhibited activation of the EGF receptor | – |
